In ChEMBL document CHEMBL6083206, “SLL-1A-16 suppresses proliferation and induces autophagy in non-small-cell lung cancer cells via the AKT/mTOR signaling pathway” (RSC Med Chem, 2024):

Assay: Toxicity in Balb/c nude mouse xenografted with human A549 cells assessed as reduction in body weight at 25 mg/kg, ip administered for 14 days
Type: organism-based
Conditions: in vivo, 336 h, time 14 day

Cl.Nc1ccn([C@@H]2O[C@H](CO)[C@@H](O)C2(F)F)c(=O)n1 [GEMCITABINE HYDROCHLORIDE]
Activity: Toxic
